Counter-ions that a name gives are not always drawn.
Assays:
Experiment in all cases: Kinase selectivity panel
Format in all cases: biochemical
[1] = target: DAPK1 (h) (Homo sapiens (Human), UniProt P53355); details: duplicate, read-out: % inhibition of control values, DAPK1 (h)
Experimental: (§1) (a) Compound 1 was tested against a panel of 60 kinases in order to assess its selectivity. The assays were chosen taking into consideration the diversity of assay families.
(§2) Human recombinant kinases were incubated in the presence of specific peptide substrates plus ATP for different times (10, 15, 30, 60 or 90 minutes) at 22° C. Phosphorylated substrate was detected by LANCE or HTRF technology (CISBIO, MA, USA).
(§3) Compound 1 was tested at 10 μM in duplicate.
(§4) The results are expressed as a percent of inhibition of control specific activity obtained in the presence of the test compound 1 and are reported in the following Table 5.
(§5) (b) Compounds 7, 12, 21 and 24 were tested against the same panel of 60 kinases under the same conditions described above for compound 1.
(§6) The results are expressed as a percent of inhibition of control specific activity obtained in the presence of the test compounds and are reported in the following Table 6.

[2] = target: PKA (h) (Homo sapiens (Human), UniProt P17612); details: duplicate, read-out: % inhibition of control values, PKA (h)
Experimental: as §1, §2, §3, §4, §5, §6

[3] = target: PAK1 (h) (Homo sapiens (Human), UniProt Q13153); details: duplicate, read-out: % inhibition of control values, PAK1 (h)
Experimental: as §1, §2, §3, §4, §5, §6

[4] = target: Pim1 kinase (h) (Homo sapiens (Human), UniProt P11309); details: duplicate, read-out: % inhibition of control values, Pim1 kinase (h)
Experimental: as §1, §2, §3, §4, §5, §6

[5] = target: PKCalpha (h) (Homo sapiens (Human), UniProt P17252); details: duplicate, read-out: % inhibition of control values, PKCalpha (h)
Experimental: as §1, §2, §3, §4, §5, §6

[6] = target: p38alpha kinase (h) (Homo sapiens (Human), UniProt Q16539); details: duplicate, read-out: % inhibition of control values, p38alpha kinase (h)
Experimental: as §1, §2, §3, §4, §5, §6

[7] = target: Ret kinase (h) (Homo sapiens (Human), UniProt P07949); details: duplicate, read-out: % inhibition of control values, Ret kinase (h)
Experimental: as §1, §2, §3, §4, §5, §6

[8] = target: CK1alpha (h) (Homo sapiens (Human), UniProt P48729); details: duplicate, read-out: % inhibition of control values, CK1alpha (h)
Experimental: as §1, §2, §3, §4, §5, §6

[9] = target: FGFR4 kinase (h) (Homo sapiens (Human), UniProt P22455); details: duplicate, read-out: % inhibition of control values, FGFR4 kinase (h)
Experimental: as §1, §2, §3, §4, §5, §6

[10] = target: IRK (h) (InsR) (Homo sapiens (Human), UniProt P06213); details: duplicate, read-out: % inhibition of control values, IRK (h) (InsR)
Experimental: as §1, §2, §3, §4, §5, §6

[11] = target: MNK2 (h) (Homo sapiens (Human), UniProt Q9HBH9); details: duplicate, read-out: % inhibition of control values, MNK2 (h)
Experimental: as §1, §2, §3, §4, §5, §6

[12] = target: EphA4 kinase (h) (Homo sapiens (Human), UniProt P54764); details: duplicate, read-out: % inhibition of control values, EphA4 kinase (h)
Experimental: as §1, §2, §3, §4, §5, §6

[13] = target: EphB2 kinase (h) (Homo sapiens (Human), UniProt P29323); details: duplicate, read-out: % inhibition of control values, EphB2 kinase (h)
Experimental: as §1, §2, §3, §4, §5, §6

[14] = target: GSK3beta (h) (Homo sapiens (Human), UniProt P49841); details: for inhibition at 10 µM: duplicate, read-out: % inhibition of control values, GSK3beta (h); for Selectivity for GSK-3β compared to the other kinases of the panel: panel of 60 kinases, 10 μM
Experimental: as §1, §2, §3, §4, §5, §6

[15] = target: AurA/Aur2 kinase (h) (Homo sapiens (Human), UniProt O14965); details: duplicate, read-out: % inhibition of control values, AurA/Aur2 kinase (h)
Experimental: as §1, §2, §3, §4, §5, §6

[16] = target: NEK7 (h) (Homo sapiens (Human), UniProt Q8TDX7); details: duplicate, read-out: % inhibition of control values, NEK7 (h)
Experimental: as §1, §2, §3, §4, §5, §6

[17] = target: Fyn kinase (h) (Homo sapiens (Human), UniProt P06241); details: duplicate, read-out: % inhibition of control values, Fyn kinase (h)
Experimental: as §1, §2, §3, §4, §5, §6

[18] = target: c-Met kinase (h) (Homo sapiens (Human), UniProt P08581); details: duplicate, read-out: % inhibition of control values, c-Met kinase (h)
Experimental: as §1, §2, §3, §4, §5, §6

[19] = target: IRAK4 (h) (Homo sapiens (Human), UniProt Q9NWZ3); details: duplicate, read-out: % inhibition of control values, IRAK4 (h)
Experimental: as §1, §2, §3, §4, §5, §6

[20] = target: Abl kinase (h) (Homo sapiens (Human), UniProt P00519); details: duplicate, read-out: % inhibition of control values, Abl kinase (h)
Experimental: as §1, §2, §3, §4, §5, §6

[21] = target: Src kinase (h) (Homo sapiens (Human), UniProt P12931); details: duplicate, read-out: % inhibition of control values, Src kinase (h)
Experimental: as §1, §2, §3, §4, §5, §6

[22] = target: RSK2 (h) (Homo sapiens (Human), UniProt P51812); details: duplicate, read-out: % inhibition of control values, RSK2 (h)
Experimental: as §1, §2, §3, §4, §5, §6

[23] = target: IKKepsilon (h) (IKBKE) (Homo sapiens (Human), UniProt Q14164); details: duplicate, read-out: % inhibition of control values, IKKepsilon (h) (IKBKE)
Experimental: as §1, §2, §3, §4, §5, §6

[24] = target: PDK1 (h) (Homo sapiens (Human), UniProt O15530); details: duplicate, read-out: % inhibition of control values, PDK1 (h)
Experimental: as §1, §2, §3, §4, §5, §6

[25] = target: FGFR1 kinase (h) (Homo sapiens (Human), UniProt P11362); details: duplicate, read-out: % inhibition of control values, FGFR1 kinase (h)
Experimental: as §1, §2, §3, §4, §5, §6

Sequence of PDK1 (h) (O15530 whole entry): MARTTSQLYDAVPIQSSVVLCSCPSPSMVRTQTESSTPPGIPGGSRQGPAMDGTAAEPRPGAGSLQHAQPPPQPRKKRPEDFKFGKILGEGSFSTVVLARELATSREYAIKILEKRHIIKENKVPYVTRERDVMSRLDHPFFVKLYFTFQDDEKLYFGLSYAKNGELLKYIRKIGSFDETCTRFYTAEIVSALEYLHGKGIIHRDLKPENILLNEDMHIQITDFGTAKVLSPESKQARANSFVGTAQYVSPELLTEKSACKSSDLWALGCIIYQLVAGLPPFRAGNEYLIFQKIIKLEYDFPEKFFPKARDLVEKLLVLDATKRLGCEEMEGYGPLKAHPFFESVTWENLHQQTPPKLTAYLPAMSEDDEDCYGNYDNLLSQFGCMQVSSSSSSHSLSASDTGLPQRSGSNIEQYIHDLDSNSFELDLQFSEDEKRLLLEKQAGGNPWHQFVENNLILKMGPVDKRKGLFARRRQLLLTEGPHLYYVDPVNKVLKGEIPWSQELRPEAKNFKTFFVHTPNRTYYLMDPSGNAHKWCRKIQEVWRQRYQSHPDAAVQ
Sequence of Ret kinase (h) (P07949 29-1114): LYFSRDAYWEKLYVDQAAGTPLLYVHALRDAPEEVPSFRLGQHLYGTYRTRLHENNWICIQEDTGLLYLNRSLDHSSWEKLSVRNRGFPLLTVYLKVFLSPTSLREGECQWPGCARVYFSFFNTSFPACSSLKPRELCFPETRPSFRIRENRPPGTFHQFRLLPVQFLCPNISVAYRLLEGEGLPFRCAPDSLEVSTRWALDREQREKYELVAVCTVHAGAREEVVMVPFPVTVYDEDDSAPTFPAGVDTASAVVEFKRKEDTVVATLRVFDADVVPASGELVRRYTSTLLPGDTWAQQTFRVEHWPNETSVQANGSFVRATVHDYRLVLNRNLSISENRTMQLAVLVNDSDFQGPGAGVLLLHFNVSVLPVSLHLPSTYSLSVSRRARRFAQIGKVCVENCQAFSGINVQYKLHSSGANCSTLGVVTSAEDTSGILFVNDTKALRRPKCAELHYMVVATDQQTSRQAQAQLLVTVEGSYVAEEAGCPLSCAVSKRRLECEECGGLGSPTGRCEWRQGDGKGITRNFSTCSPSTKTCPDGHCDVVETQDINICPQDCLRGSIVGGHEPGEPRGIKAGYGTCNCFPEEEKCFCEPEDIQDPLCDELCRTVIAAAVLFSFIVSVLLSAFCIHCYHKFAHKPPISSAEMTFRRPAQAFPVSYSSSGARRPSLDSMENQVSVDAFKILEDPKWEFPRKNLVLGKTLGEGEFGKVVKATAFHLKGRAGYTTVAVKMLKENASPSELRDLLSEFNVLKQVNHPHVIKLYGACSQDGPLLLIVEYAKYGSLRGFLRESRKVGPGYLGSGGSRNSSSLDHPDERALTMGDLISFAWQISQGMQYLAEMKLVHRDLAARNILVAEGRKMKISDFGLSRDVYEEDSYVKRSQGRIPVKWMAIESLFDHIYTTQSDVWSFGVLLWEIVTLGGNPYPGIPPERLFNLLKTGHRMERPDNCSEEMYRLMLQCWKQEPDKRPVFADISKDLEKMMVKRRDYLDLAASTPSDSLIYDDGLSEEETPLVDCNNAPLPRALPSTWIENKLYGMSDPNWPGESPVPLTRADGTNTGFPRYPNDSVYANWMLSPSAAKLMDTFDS
Sequence of MNK2 (h) (Q9HBH9 whole entry): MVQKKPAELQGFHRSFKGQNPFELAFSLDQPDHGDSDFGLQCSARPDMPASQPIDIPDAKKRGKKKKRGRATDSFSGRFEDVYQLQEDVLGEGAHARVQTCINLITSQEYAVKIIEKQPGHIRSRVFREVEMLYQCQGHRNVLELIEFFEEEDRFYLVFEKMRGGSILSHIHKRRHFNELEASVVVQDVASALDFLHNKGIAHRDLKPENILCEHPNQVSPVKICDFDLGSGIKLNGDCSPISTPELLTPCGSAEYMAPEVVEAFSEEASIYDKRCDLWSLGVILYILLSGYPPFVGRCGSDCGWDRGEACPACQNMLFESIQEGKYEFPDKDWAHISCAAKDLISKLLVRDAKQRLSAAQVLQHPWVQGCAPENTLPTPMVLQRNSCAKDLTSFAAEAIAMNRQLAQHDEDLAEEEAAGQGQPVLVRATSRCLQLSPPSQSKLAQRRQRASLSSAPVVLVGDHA
Sequence of Pim1 kinase (h) (P11309 whole entry): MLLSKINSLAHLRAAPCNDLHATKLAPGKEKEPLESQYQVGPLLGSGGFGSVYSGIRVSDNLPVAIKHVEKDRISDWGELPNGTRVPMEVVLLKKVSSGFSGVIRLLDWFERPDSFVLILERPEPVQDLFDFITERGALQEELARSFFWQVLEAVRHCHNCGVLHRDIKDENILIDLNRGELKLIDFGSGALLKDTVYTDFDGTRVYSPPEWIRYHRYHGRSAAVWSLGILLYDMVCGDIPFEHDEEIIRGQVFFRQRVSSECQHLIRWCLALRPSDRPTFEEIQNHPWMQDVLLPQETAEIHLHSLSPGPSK
Sequence of IRK (h) (InsR) (P06213 28-1382): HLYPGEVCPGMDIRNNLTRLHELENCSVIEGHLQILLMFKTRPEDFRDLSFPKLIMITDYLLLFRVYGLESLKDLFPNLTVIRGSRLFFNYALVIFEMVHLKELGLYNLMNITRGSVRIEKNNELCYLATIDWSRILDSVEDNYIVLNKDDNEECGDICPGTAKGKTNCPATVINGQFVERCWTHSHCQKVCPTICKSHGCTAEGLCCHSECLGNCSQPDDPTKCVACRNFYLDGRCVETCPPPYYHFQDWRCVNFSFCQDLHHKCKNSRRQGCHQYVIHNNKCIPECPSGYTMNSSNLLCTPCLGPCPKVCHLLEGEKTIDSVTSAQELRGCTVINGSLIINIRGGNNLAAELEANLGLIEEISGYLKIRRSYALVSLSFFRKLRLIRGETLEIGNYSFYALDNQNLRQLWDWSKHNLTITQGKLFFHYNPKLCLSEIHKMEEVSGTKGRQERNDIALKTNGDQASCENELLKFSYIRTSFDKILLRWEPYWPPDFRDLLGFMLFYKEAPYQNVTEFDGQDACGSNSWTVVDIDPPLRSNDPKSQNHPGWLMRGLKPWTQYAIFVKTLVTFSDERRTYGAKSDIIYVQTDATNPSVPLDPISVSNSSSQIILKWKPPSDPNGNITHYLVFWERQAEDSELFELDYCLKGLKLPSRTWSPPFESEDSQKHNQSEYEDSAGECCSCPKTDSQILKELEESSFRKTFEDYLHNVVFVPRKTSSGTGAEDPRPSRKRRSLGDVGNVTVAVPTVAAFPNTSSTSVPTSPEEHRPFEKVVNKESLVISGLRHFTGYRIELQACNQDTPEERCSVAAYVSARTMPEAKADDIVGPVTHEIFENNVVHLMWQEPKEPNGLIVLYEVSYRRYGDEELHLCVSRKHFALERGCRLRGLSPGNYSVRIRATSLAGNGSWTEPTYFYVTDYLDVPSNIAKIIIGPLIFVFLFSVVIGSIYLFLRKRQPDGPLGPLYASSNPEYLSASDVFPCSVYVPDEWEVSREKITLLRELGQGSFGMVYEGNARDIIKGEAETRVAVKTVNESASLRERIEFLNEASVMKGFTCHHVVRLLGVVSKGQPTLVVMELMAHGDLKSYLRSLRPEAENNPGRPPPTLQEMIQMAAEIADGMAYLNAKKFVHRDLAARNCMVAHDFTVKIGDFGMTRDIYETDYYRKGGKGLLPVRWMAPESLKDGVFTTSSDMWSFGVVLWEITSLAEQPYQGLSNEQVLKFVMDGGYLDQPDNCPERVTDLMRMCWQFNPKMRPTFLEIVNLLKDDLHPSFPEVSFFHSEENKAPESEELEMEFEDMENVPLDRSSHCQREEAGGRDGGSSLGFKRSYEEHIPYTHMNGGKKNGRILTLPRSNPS
Sequence of NEK7 (h) (Q8TDX7 whole entry): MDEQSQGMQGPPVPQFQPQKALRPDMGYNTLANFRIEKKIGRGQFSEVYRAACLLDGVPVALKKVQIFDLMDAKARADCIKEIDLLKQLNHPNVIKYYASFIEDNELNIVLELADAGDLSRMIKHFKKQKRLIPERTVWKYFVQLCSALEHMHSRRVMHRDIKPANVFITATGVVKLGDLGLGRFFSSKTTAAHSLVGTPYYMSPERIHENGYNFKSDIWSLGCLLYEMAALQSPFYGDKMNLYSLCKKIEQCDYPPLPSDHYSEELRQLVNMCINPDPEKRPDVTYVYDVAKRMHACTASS

Row | SMILES | inhibition at 10 µM [1] | inhibition at 10 µM [2] | inhibition at 10 µM [3] | inhibition at 10 µM [4] | inhibition at 10 µM [5] | inhibition at 10 µM [6] | inhibition at 10 µM [7] | inhibition at 10 µM [8] | inhibition at 10 µM [9] | inhibition at 10 µM [10] | inhibition at 10 µM [11] | inhibition at 10 µM [12] | inhibition at 10 µM [13] | inhibition at 10 µM [14] | Selectivity for GSK-3β compared to the other kinases of the panel [14] | inhibition at 10 µM [15] | inhibition at 10 µM [16] | inhibition at 10 µM [17] | inhibition at 10 µM [18] | inhibition at 10 µM [19] | also measured
1 | COc1ccncc1-c1ccc2[nH]nc(C(=O)NCC3CCN(Cc4ccc(C(=O)O)o4)CC3)c2c1 [Compound 21, 5-({4-[({[5-(4-Methoxypyridin-3-yl)-1H-indazol-3-yl]carbonyl}amino)methyl]piperidin-1-yl}methyl)furan-2-carboxylic acid formate] | 5% | 3% | 4% | 10% | 20% | 1% | 0% | 2% | 0% | 0% | 6% | 2% | 2% | 96% | good affinity to GSK-3β when compared to most of other kinases of the same family | 30% | 5% | 10% | 0% | 18% | inhibition at 10 µM [20]: 0%; inhibition at 10 µM [21]: 0%; inhibition at 10 µM [22]: 20%; inhibition at 10 µM [23]: 21%; inhibition at 10 µM [24]: 0%; inhibition at 10 µM [25]: 13%
2 | COc1ccc2[nH]nc(C(=O)NCC3CCN(Cc4ccc(C(=O)O)o4)CC3)c2c1 [Compound 24, 5-{[4-({[(5-Methoxy-1H-indazol-3-yl)carbonyl]amino}methyl)piperidin-1-yl]methyl}furan-2-carboxylic acid] | 15% | 0% | 1% | 2% | 0% | 0% | 0% | 0% | 4% | 3% | 0% | 0% | 0% | 94% | good selectivity profile | 4% | 3% | 3% | 2% | 1% | inhibition at 10 µM [20]: 0%; inhibition at 10 µM [21]: 0%; inhibition at 10 µM [22]: 1%; inhibition at 10 µM [23]: 0%; inhibition at 10 µM [24]: 0%; inhibition at 10 µM [25]: 0%
3 | COc1ccc2[nH]nc(C(=O)NCC3CCN(CCc4ccc(O)cc4)CC3)c2c1 [Compound 1, N-({1-[2-(4-hydroxyphenyl)ethyl]-piperidin-4-yl}methyl)-5-methoxy-1H-indazole-3-carboxamide] | 10% | 0% | 4% | 2% | 8% | 0% | 1% | 15% | 2% | 18% | 1% | 0% | 0% | 92% | good selectivity profile | 1% | 9% | 13% | 0% | 0% | inhibition at 10 µM [20]: 0%; inhibition at 10 µM [21]: 0%; inhibition at 10 µM [22]: 3%; inhibition at 10 µM [23]: 4%; inhibition at 10 µM [24]: 8%; inhibition at 10 µM [25]: 6%
